Measurements published in ChEMBL document CHEMBL3045554, “Synthesis and antimicrobial screening of N-(1-methyl-1H-pyrazole-4-carbonyl)-thiourea derivatives” (2012).
Converted amounts (≈) assume the structure as drawn. One block for each compound: values may come before it. The source made the active and inactive calls. The rule behind the calls is not given here.

What was measured:
Acinetobacter baumannii [1] = assay: Antimicrobial activity against Acinetobacter baumannii 15896 by microdilution method; type: functional
Pseudomonas aeruginosa [2] = assay: Antimicrobial activity against Pseudomonas aeruginosa 5541 by microdilution method; type: functional
Escherichia coli [3] = assay: Antimicrobial activity against Escherichia coli 637/2007 by microdilution method; type: functional
Klebsiella pneumoniae [4] = assay: Antimicrobial activity against Klebsiella pneumoniae 126/2007 by microdilution method; type: functional
Staphylococcus aureus [5] = assay: Antimicrobial activity against Staphylococcus aureus by microdilution method; type: functional
Bacillus subtilis [6] = assay: Antimicrobial activity against Bacillus subtilis 10.10.2006 by microdilution method; type: functional
Enterococcus faecalis [7] = assay: Antimicrobial activity against Enterococcus faecalis 13773 by microdilution method; type: functional
Escherichia coli [8] = assay: Effect on lipase production in Escherichia coli 637/2007 after 7 days; type: functional, organism-based
Acinetobacter baumannii [9] = assay: Inhibition of lecithinase production in Acinetobacter baumannii 15896 after 7 days; type: functional, organism-based
Klebsiella pneumoniae [10] = assay: Effect on esculethol production in Klebsiella pneumoniae 126/2007 after 24 hr by esculin hydrolysis test; type: functional, organism-based
Acinetobacter baumannii [11] = assay: Effect on gelatinase production in Acinetobacter baumannii 15896 after 24 hr by gelatin hydrolysis test; type: functional, organism-based
Escherichia coli [12] = assay: Inhibition of lecithinase production in Escherichia coli 637/2007 after 7 days; type: functional, organism-based
Enterococcus faecalis [13] = assay: Inhibition of caseinase production in Enterococcus faecalis 13773 after 24 hr by casein hydrolysis assay; type: functional, organism-based
Staphylococcus aureus [14] = assay: Inhibition of caseinase production in Staphylococcus aureus after 24 hr by casein hydrolysis assay; type: functional, organism-based
Bacillus subtilis [15] = assay: Effect on DNase production in Bacillus subtilis 10.10.2006 after 24 hr; type: functional, organism-based
Bacillus subtilis [16] = assay: Effect on lipase production in Bacillus subtilis 10.10.2006 after 7 days; type: functional, organism-based
Klebsiella pneumoniae [17] = assay: Effect on DNase production in Klebsiella pneumoniae 126/2007 after 24 hr; type: functional, organism-based
Staphylococcus aureus [18] = assay: Effect on lipase production in Staphylococcus aureus after 7 days; type: functional, organism-based
Acinetobacter baumannii [19] = assay: Inhibition of caseinase production in Acinetobacter baumannii 15896 after 24 hr by casein hydrolysis assay; type: functional, organism-based
Staphylococcus aureus [20] = assay: Effect on DNase production in Staphylococcus aureus after 24 hr; type: functional, organism-based
Enterococcus faecalis [21] = assay: Effect on lipase production in Enterococcus faecalis 13773 after 7 days; type: functional, organism-based
Escherichia coli [22] = assay: Inhibition of caseinase production in Escherichia coli 637/2007 after 24 hr by casein hydrolysis assay; type: functional, organism-based
Bacillus subtilis [23] = assay: Inhibition of caseinase production in Bacillus subtilis 10.10.2006 after 24 hr by casein hydrolysis assay; type: functional, organism-based
Acinetobacter baumannii [24] = assay: Effect on esculethol production in Acinetobacter baumannii 15896 after 24 hr by esculin hydrolysis test; type: functional, organism-based
Enterococcus faecalis [25] = assay: Effect on esculethol production in Enterococcus faecalis 13773 after 24 hr by esculin hydrolysis test; type: functional, organism-based
Staphylococcus aureus [26] = assay: Effect on gelatinase production in Staphylococcus aureus after 24 hr by gelatin hydrolysis test; type: functional, organism-based
Bacillus subtilis [27] = assay: Effect on gelatinase production in Bacillus subtilis 10.10.2006 after 24 hr by gelatin hydrolysis test; type: functional, organism-based
Enterococcus faecalis [28] = assay: Effect on DNase production in Enterococcus faecalis 13773 after 24 hr; type: functional, organism-based
Pseudomonas aeruginosa [29] = assay: Effect on lipase production in Pseudomonas aeruginosa 5541 after 7 days; type: functional, organism-based
Klebsiella pneumoniae [30] = assay: Effect on gelatinase production in Klebsiella pneumoniae 126/2007 after 24 hr by gelatin hydrolysis test; type: functional, organism-based
Pseudomonas aeruginosa [31] = assay: Effect on esculethol production in Pseudomonas aeruginosa 5541 after 24 hr by esculin hydrolysis test; type: functional, organism-based
Acinetobacter baumannii [32] = assay: Effect on lipase production in Acinetobacter baumannii 15896 after 7 days; type: functional, organism-based
Enterococcus faecalis [33] = assay: Inhibition of lecithinase production in Enterococcus faecalis 13773 after 7 days; type: functional, organism-based
Klebsiella pneumoniae [34] = assay: Effect on amylase production in Klebsiella pneumoniae 126/2007 after 24 hr by starch hydrolysis assay; type: functional, organism-based
Klebsiella pneumoniae [35] = assay: Inhibition of lecithinase production in Klebsiella pneumoniae 126/2007 after 7 days; type: functional, organism-based
Pseudomonas aeruginosa [36] = assay: Effect on gelatinase production in Pseudomonas aeruginosa 5541 after 24 hr by gelatin hydrolysis test; type: functional, organism-based
Staphylococcus aureus [37] = assay: Effect on esculethol production in Staphylococcus aureus after 24 hr by esculin hydrolysis test; type: functional, organism-based
Enterococcus faecalis [38] = assay: Effect on amylase production in Enterococcus faecalis 13773 after 24 hr by starch hydrolysis assay; type: functional, organism-based
Bacillus subtilis [39] = assay: Effect on esculethol production in Bacillus subtilis 10.10.2006 after 24 hr by esculin hydrolysis test; type: functional, organism-based
Pseudomonas aeruginosa [40] = assay: Inhibition of caseinase production in Pseudomonas aeruginosa 5541 after 24 hr by casein hydrolysis assay; type: functional, organism-based
Pseudomonas aeruginosa [41] = assay: Effect on DNase production in Pseudomonas aeruginosa 5541 after 24 hr; type: functional, organism-based
Klebsiella pneumoniae [42] = assay: Inhibition of caseinase production in Klebsiella pneumoniae 126/2007 after 24 hr by casein hydrolysis assay; type: functional, organism-based
Staphylococcus aureus [43] = assay: Effect on amylase production in Staphylococcus aureus after 24 hr by starch hydrolysis assay; type: functional, organism-based
Acinetobacter baumannii [44] = assay: Effect on DNase production in Acinetobacter baumannii 15896 after 24 hr; type: functional, organism-based
Escherichia coli [45] = assay: Effect on amylase production in Escherichia coli 637/2007 after 24 hr by starch hydrolysis assay; type: functional, organism-based
Enterococcus faecalis [46] = assay: Effect on gelatinase production in Enterococcus faecalis 13773 after 24 hr by gelatin hydrolysis test; type: functional, organism-based
Escherichia coli [47] = assay: Effect on DNase production in Escherichia coli 637/2007 after 24 hr; type: functional, organism-based
Escherichia coli [48] = assay: Effect on esculethol production in Escherichia coli 637/2007 after 24 hr by esculin hydrolysis test; type: functional, organism-based
Pseudomonas aeruginosa [49] = assay: Inhibition of lecithinase production in Pseudomonas aeruginosa 5541 after 7 days; type: functional, organism-based
Acinetobacter baumannii [50] = assay: Effect on amylase production in Acinetobacter baumannii 15896 after 24 hr by starch hydrolysis assay; type: functional, organism-based
Escherichia coli [51] = assay: Effect on gelatinase production in Escherichia coli 637/2007 after 24 hr by gelatin hydrolysis test; type: functional, organism-based
Bacillus subtilis [52] = assay: Effect on amylase production in Bacillus subtilis 10.10.2006 after 24 hr by starch hydrolysis assay; type: functional, organism-based
Pseudomonas aeruginosa [53] = assay: Effect on amylase production in Pseudomonas aeruginosa 5541 after 24 hr by starch hydrolysis assay; type: functional, organism-based
Staphylococcus aureus [54] = assay: Inhibition of lecithinase production in Staphylococcus aureus after 7 days; type: functional, organism-based
Klebsiella pneumoniae [55] = assay: Effect on lipase production in Klebsiella pneumoniae 126/2007 after 7 days; type: functional, organism-based
Bacillus subtilis [56] = assay: Inhibition of lecithinase production in Bacillus subtilis 10.10.2006 after 7 days; type: functional, organism-based

SMILES: Cc1ccccc1NC(=S)NC(=O)c1cnn(C)c1
MIC (Acinetobacter baumannii [1]): > 1000 µg/mL
MIC (Pseudomonas aeruginosa [2]): > 1000 µg/mL
MIC (Escherichia coli [3]): > 1000 µg/mL
MIC (Klebsiella pneumoniae [4]): > 1000 µg/mL
MIC (Staphylococcus aureus [5]): > 1000 µg/mL
MIC (Bacillus subtilis [6]): > 1000 µg/mL
MIC (Enterococcus faecalis [7]): > 1000 µg/mL

SMILES: Cc1ccc(NC(=S)NC(=O)c2cnn(C)c2)cc1
MIC (Acinetobacter baumannii [1]): > 1000 µg/mL
MIC (Pseudomonas aeruginosa [2]): > 1000 µg/mL
MIC (Escherichia coli [3]): > 1000 µg/mL
MIC (Klebsiella pneumoniae [4]): > 1000 µg/mL
MIC (Staphylococcus aureus [5]): > 1000 µg/mL
MIC (Bacillus subtilis [6]): > 1000 µg/mL
MIC (Enterococcus faecalis [7]): > 1000 µg/mL

SMILES: Cn1cc(C(=O)NC(=S)Nc2ccc(C(C)(C)C)cc2)cn1
MIC (Acinetobacter baumannii [1]): > 1000 µg/mL
MIC (Pseudomonas aeruginosa [2]): > 1000 µg/mL
MIC (Escherichia coli [3]): > 1000 µg/mL
MIC (Klebsiella pneumoniae [4]): > 1000 µg/mL
MIC (Staphylococcus aureus [5]): > 1000 µg/mL
MIC (Bacillus subtilis [6]): > 1000 µg/mL
MIC (Enterococcus faecalis [7]): > 1000 µg/mL

SMILES: CCC(C)c1ccccc1NC(=S)NC(=O)c1cnn(C)c1 (stereo not drawn)
MIC (Acinetobacter baumannii [1]): > 1000 µg/mL
MIC (Pseudomonas aeruginosa [2]): > 1000 µg/mL
MIC (Escherichia coli [3]): > 1000 µg/mL
MIC (Klebsiella pneumoniae [4]): > 1000 µg/mL
MIC (Staphylococcus aureus [5]): > 1000 µg/mL
MIC (Bacillus subtilis [6]): > 1000 µg/mL
MIC (Enterococcus faecalis [7]): > 1000 µg/mL

The next lines start with results.

MIC (Acinetobacter baumannii [1]): > 1000 µg/mL
MIC (Pseudomonas aeruginosa [2]): > 1000 µg/mL
MIC (Escherichia coli [3]): > 1000 µg/mL
MIC (Klebsiella pneumoniae [4]): > 1000 µg/mL
MIC (Staphylococcus aureus [5]): > 1000 µg/mL
MIC (Bacillus subtilis [6]): > 1000 µg/mL
MIC (Enterococcus faecalis [7]): > 1000 µg/mL
SMILES: CCc1ccc(NC(=S)NC(=O)c2cnn(C)c2)cc1

MIC (Acinetobacter baumannii [1]): > 1000 µg/mL
MIC (Pseudomonas aeruginosa [2]): > 1000 µg/mL
MIC (Escherichia coli [3]): > 1000 µg/mL
MIC (Klebsiella pneumoniae [4]): 1000 µg/mL (≈ 3.64 mM)
MIC (Staphylococcus aureus [5]): > 1000 µg/mL
MIC (Bacillus subtilis [6]): 1000 µg/mL (≈ 3.64 mM)
MIC (Enterococcus faecalis [7]): > 1000 µg/mL
SMILES: Cc1cccc(NC(=S)NC(=O)c2cnn(C)c2)c1

inhibition (Acinetobacter baumannii [9]): inactive
Activity (Acinetobacter baumannii [11]): inactive
inhibition (Enterococcus faecalis [13]): inactive
Activity (Bacillus subtilis [15]): inactive
Activity (Bacillus subtilis [16]): inactive
Activity (Klebsiella pneumoniae [17]): inactive
inhibition (Acinetobacter baumannii [19]): inactive
Activity (Enterococcus faecalis [21]): inactive
inhibition (Bacillus subtilis [23]): inactive
MIC (Acinetobacter baumannii [1]): 250 µg/mL (≈ 0.867 mM)
Activity (Bacillus subtilis [27]): inactive
Activity (Enterococcus faecalis [28]): inactive
Activity (Pseudomonas aeruginosa [29]): inactive
Activity (Klebsiella pneumoniae [30]): inactive
MIC (Pseudomonas aeruginosa [2]): 500 µg/mL (≈ 1.73 mM)
Activity (Acinetobacter baumannii [32]): inactive
inhibition (Enterococcus faecalis [33]): inactive
Activity (Klebsiella pneumoniae [34]): inactive
inhibition (Klebsiella pneumoniae [35]): Active
Activity (Pseudomonas aeruginosa [36]): inactive
MIC (Escherichia coli [3]): > 1000 µg/mL
MIC (Klebsiella pneumoniae [4]): 1000 µg/mL (≈ 3.47 mM)
Activity (Enterococcus faecalis [38]): inactive
inhibition (Pseudomonas aeruginosa [40]): inactive
Activity (Pseudomonas aeruginosa [41]): inactive
MIC (Staphylococcus aureus [5]): 250 µg/mL (≈ 0.867 mM)
inhibition (Klebsiella pneumoniae [42]): inactive
Activity (Acinetobacter baumannii [44]): inactive
Activity (Enterococcus faecalis [46]): inactive
inhibition (Pseudomonas aeruginosa [49]): inactive
Activity (Acinetobacter baumannii [50]): inactive
MIC (Bacillus subtilis [6]): 1000 µg/mL (≈ 3.47 mM)
Activity (Bacillus subtilis [52]): inactive
MIC (Enterococcus faecalis [7]): > 1000 µg/mL
Activity (Pseudomonas aeruginosa [53]): inactive
Activity (Klebsiella pneumoniae [55]): inactive
inhibition (Bacillus subtilis [56]): inactive
SMILES: CCc1ccccc1NC(=S)NC(=O)c1cnn(C)c1
Activity (Escherichia coli [8]): inactive
Activity (Klebsiella pneumoniae [10]): inactive
inhibition (Escherichia coli [12]): inactive
inhibition (Staphylococcus aureus [14]): inactive
Activity (Staphylococcus aureus [18]): inactive
Activity (Staphylococcus aureus [20]): inactive
inhibition (Escherichia coli [22]): inactive
Activity (Acinetobacter baumannii [24]): inactive
Activity (Enterococcus faecalis [25]): inactive
Activity (Staphylococcus aureus [26]): inactive
Activity (Pseudomonas aeruginosa [31]): inactive
Activity (Staphylococcus aureus [37]): inactive
Activity (Bacillus subtilis [39]): inactive
Activity (Staphylococcus aureus [43]): inactive
Activity (Escherichia coli [45]): inactive
Activity (Escherichia coli [47]): inactive
Activity (Escherichia coli [48]): inactive
Activity (Escherichia coli [51]): inactive
inhibition (Staphylococcus aureus [54]): inactive
